# According to patent US20230129258A1, “HETEROTANDEM BICYCLIC PEPTIDE COMPLEXES” (BicycleTx Limited, priority 2019, published 2023):
# Starred links: 1 amine or outer side, 2 acyl side, 3 side chain; linkers in the order of their positions; H or OH if unused. Positions of bridges follow the written chain, without caps; N, C: chain ends. Non-standard residues stand in square brackets, D forms with d. Primed or numbered codes have the meaning given here. Chains are numbered I, II in the order given. No end group written: not given here. X4 = O=C(CCOCCOCCOCCOCCOCCn1cc(CCC(=O)[*:2])nn1)NCCCN(CCCNC(=O)CCOCCOCCOCCOCCOCCn1cc(CCC(=O)[*:3])nn1)CC(=O)[*:1]; X1 = O=C(CCOCCOCCOCCN(CCOCCOCCOCCn1cc(CCC(=O)[*:2])nn1)CCOCCOCCOCCn1cc(CCC(=O)[*:3])nn1)[*:1]; X3 = O=C(CCc1cn(CCOCCOCCOCCN(CCOCCOCCOCCC(=O)[*:3])CCOCCOCCOCCn2cc(CCC(=O)[*:2])nn2)nn1)[*:1]; PYA″ = 4-pentynoic acid, acylating the D-Lys side chain, alkyne clicked to the linker azide; TATA = O=C(CC[*:1])N1CN(C(=O)CC[*:2])CN(C(=O)CC[*:3])C1; Ala(4-thiazolyl) = N[C@@H](Cc1cscn1)C(=O)O; Dip = N[C@H](C(=O)O)C(c1ccccc1)c1ccccc1; 1Nal = N[C@@H](Cc1cccc2ccccc12)C(=O)O; Hyp = O=C(O)[C@@H]1C[C@@H](O)CN1; hArg = N=C(N)NCCCC[C@H](N)C(=O)O; tBuAla = CC(C)(C)C[C@H](N)C(=O)O; Aad = N[C@@H](CCCC(=O)O)C(=O)O; Cysteamide = C(CS[*:3])N[*:1]; Cba = N[C@@H](CC1CCC1)C(=O)O; dK(PYA) = not defined here; dNle = CCCC[C@@H](N)C(=O)O; NMeA = CN[C@@H](C)C(=O)O; Nle = CCCC[C@H](N)C(=O)O; Mpa = O=C(O)CCS
# Molecular target: CD137 (Homo sapiens, UniProt Q07011)
# Sequence (Q07011 24-255): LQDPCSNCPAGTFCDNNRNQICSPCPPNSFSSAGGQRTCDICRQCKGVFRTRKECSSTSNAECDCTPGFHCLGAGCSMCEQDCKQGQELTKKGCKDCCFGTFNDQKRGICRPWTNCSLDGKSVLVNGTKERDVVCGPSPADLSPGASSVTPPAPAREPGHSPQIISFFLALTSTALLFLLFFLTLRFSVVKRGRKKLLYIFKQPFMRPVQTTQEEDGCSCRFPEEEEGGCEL
# Test: CD137 reporter assay (Promega, Jurkat cells) in co-culture with EphA2-expressing tumor cells (A549, PC3, HT29)
# Assay type: cell-based
# Parameters: host or cells: Jurkat reporter cells
# Details: for Emax (fold induction over background) / fold induction: CD137 reporter coculture assay with PC3 tumor cells; for fold induction: read-out: Emax (fold induction over background); for EC50: EC50, CD137 reporter coculture assay with PC3 tumor cells; for Fold Improvement over BCY9173, EC50 (nM) / Fold Improvement over Emax: co-culture with PC3; for Fold Improvement over Emax: versus BCY9173
# Description: Culture medium, referred to as R1 media, is prepared by adding 1% FBS to RPMI-1640 (component of Promega kit CS196005). Serial dilutions of test articles in R1 are prepared in a sterile 96 well-plate. Add 25 μL per well of test articles or R1 (as a background control) to designated wells in a white cell culture plate. Tumor cells* are harvested and resuspended at a concentration of 400,000 cells/mL in R1 media. Twenty five (25) μL/well of tumor cells are added to the white cell culture plate. Jurkat cells (Promega kit CS196005, 0.5 mL) are thawed in the water bath and then added to 5 ml pre-warmed R1 media. Twenty five (25) μL/well of Jurkat cells are then added to the white cell culture plate. Incubate the cells and test articles for 6 h at 37° C., 5% CO2. At the end of 6 h, add 75 μL/well Bio-Glo™ reagent (Promega) and incubate for 10 min before reading luminescence in a plate reader (Clariostar, BMG). The fold change relative to cells alone (Jurkat cells+Cell line used in co-culture) is calculated and plotted in GraphPad Prism as log(agonist) vs response to determine EC50 (nM) and Fold Induction over background (Max).
# The tumor cell types used in co-culture for EphA2 are A549, PC3 and HT29. The tumor cell type used in co-culture for PD-L1 is RKO.
Substance,Emax (fold induction over background),fold induction,EC50,"Fold Improvement over BCY9173, EC50 (nM)",Fold Improvement over Emax
"I: Ac-C[tBuAla]PE[dK]PYCFADPY[Nle]CA-NH2 / II: Ac-C[tBuAla]PE[dK]PYCFADPY[Nle]CA-NH2 / III: C[Hyp]LVNPLCL[1Nal]P[dD]WTC-NH2 (linker I:1-I:8-I:15, II:1-II:8-II:15, III:1-III:8-III:15 via TATA; linker I:5-II:5-III:N via X3) [BCY13273]",51.27,–,–,–,–
"I: ADC[Hyp]LVNPLCLEP[dD]WTC-NH2 / II: Ac-C[tBuAla]PE[dK]PYCFADPY[Nle]CA-NH2 / III: Ac-C[tBuAla]PE[dK]PYCFADPY[Nle]CA-NH2 (linker I:3-I:10-I:17, II:1-II:8-II:15, III:1-III:8-III:15 via TATA; linker I:N-II:5-III:5 via X1) [BCY13282]",–,40,–,–,–
"I: [NMeA][hArg]DC[Hyp]LVNPLCLHP[dD]W[hArg]C-NH2 / II: Ac-C[tBuAla]PE[dK]PYCFADPY[Nle]CA-NH2 / III: Ac-C[tBuAla]PE[dK]PYCFADPY[Nle]CA-NH2 (linker I:4-I:11-I:18, II:1-II:8-II:15, III:1-III:8-III:15 via TATA; linker I:N-II:5-III:5 via X1) [BCY13275]",47.50,–,0.08 nM,–,–
"BCY14051: EphA2:CD137 1:2; BCY13919 + 2x BCY8928; linker N-(acid-PEG3)-N-bis(PEG3-azide) (peptide 1 A[hArg]DC[Hyp]LVNPLCL[Ala(4-thiazolyl)]P[dD]W[hArg]C; peptide 2 Ac-C[tBuAla]PE[dK](PYA″)PYCFADPY[Nle]CA; linker I:4-I:11-I:18, II:1-II:8-II:15 via TATA (inferred); not fully specified (N-terminus, bridges); also: 2x chain 2 (2x BCY8928) on linker)",–,–,–,3.15 fold,1.88 fold
"I: A[hArg]DC[Hyp]LVNPLCL[Dip]P[dD]W[hArg]C-NH2 / II: Ac-C[tBuAla]PE[dK]PYCFADPY[Nle]CA-NH2 / III: Ac-C[tBuAla]PE[dK]PYCFADPY[Nle]CA-NH2 (linker I:4-I:11-I:18, II:1-II:8-II:15, III:1-III:8-III:15 via TATA; linker I:N-II:5-III:5 via X1) [BCY13054]",36.53,–,0.07 nM,–,–
"I: A[hArg]DC[Hyp]LVNPLC[Aad]HP[dD]W[hArg]C-NH2 / II: Ac-C[tBuAla]PE[dK]PYCFADPY[Nle]CA-NH2 / III: Ac-C[tBuAla]PE[dK]PYCFADPY[Nle]CA-NH2 (linker I:4-I:11-I:18, II:1-II:8-II:15, III:1-III:8-III:15 via TATA; linker I:N-II:5-III:5 via X1) [BCY13285]",36.53,–,0.26 nM,–,–
"I: A[hArg]DC[Hyp]LVNPLCLHP[dD]W[hArg]C-NH2 / II: Ac-C[tBuAla]PE[dK]PYCFADPY[Nle]CA-NH2 / III: Ac-C[tBuAla]PE[dK]PYCFADPY[Nle]CA-NH2 (linker I:4-I:11-I:18, II:1-II:8-II:15, III:1-III:8-III:15 via TATA; linker I:N-II:5-III:5 via X4) [BCY12979]",71.60,–,0.08 nM,–,–
"I: C[Hyp][Cba]VNPLCL[Dip]P[dD]WTC[dA]-NH2 / II: Ac-C[tBuAla]PE[dK]PYCFADPY[Nle]CA-NH2 / III: Ac-C[tBuAla]PE[dK]PYCFADPY[Nle]CA-NH2 (linker I:1-I:8-I:15, II:1-II:8-II:15, III:1-III:8-III:15 via TATA; linker I:N-II:5-III:5 via X1) [BCY13053]",40.33,–,0.1 nM,–,–
"I: A[hArg]DC[Hyp]LVNPLCLHP[dE]W[hArg]C-NH2 / II: Ac-C[tBuAla]PE[dK]PYCFADPY[Nle]CA-NH2 / III: Ac-C[tBuAla]PE[dK]PYCFADPY[Nle]CA-NH2 (linker I:4-I:11-I:18, II:1-II:8-II:15, III:1-III:8-III:15 via TATA; linker I:N-II:5-III:5 via X1) [BCY12977]",–,67.2,0.08 nM,–,–
"I: A[hArg]DC[Hyp][Aad]VNPLCLHP[dD]W[hArg]C-NH2 / II: Ac-C[tBuAla]PE[dK]PYCFADPY[Nle]CA-NH2 / III: Ac-C[tBuAla]PE[dK]PYCFADPY[Nle]CA-NH2 (linker I:4-I:11-I:18, II:1-II:8-II:15, III:1-III:8-III:15 via TATA; linker I:N-II:5-III:5 via X1) [BCY13284]",–,34.7,0.25 nM,–,–
"I: [dA]EDC[Hyp]LVNPLCLEP[dD]WTC-NH2 / II: Ac-C[tBuAla]PE[dK]PYCFADPY[Nle]CA-NH2 / III: Ac-C[tBuAla]PE[dK]PYCFADPY[Nle]CA-NH2 (linker I:4-I:11-I:18, II:1-II:8-II:15, III:1-III:8-III:15 via TATA; linker I:N-II:5-III:5 via X1) [BCY13280]",–,38.1,0.19 nM,–,–
"BCY12731: EphA2:CD137 1:2; BCY9594 + 2x BCY12354; linker N-(acid-PEG3)-N-bis(PEG3-azide) (peptide 1 A[hArg]DC[Hyp]LVNPLCLHP[dD]W[hArg]C; peptide 2 [Mpa][tBuAla]PE[dK(PYA)]PYCFADPY[Nle][Cysteamide]; linker I:4-I:11-I:18 via TATA (inferred); linker II:1-II:8-II:15 via TATA; not fully specified (N-terminus); reading uncertain; also: chain 2 twice (1:2 complex), linker at chain B 5 to a chain's N-terminus via N-(acid-PEG3)-N-bis(PEG3-azide))",–,–,–,0.2 fold,1.5 fold
BCY12729: EphA2:CD137 1:2; BCY9594 + 2x BCY12352; linker N-(acid-PEG3)-N-bis(PEG3-azide) (peptide 1 A[hArg]DC[Hyp]LVNPLCLHP[dD]W[hArg]C; peptide 2 Ac-C[tBuAla]PE[dK(PYA)]PYCFADPY[Nle][Cysteamide]; linker I:4-I:11-I:18 via TATA (inferred); linker II:1-II:8-II:15 via TATA; linker II:N-II:5 via N‑(acid-PEG3)‑N‑bis(PEG3-azide); not fully specified (N-terminus); reading uncertain; also: chain 2 twice (1:2 complex)),–,–,–,0.5 fold,1.6 fold
BCY12726: EphA2:CD137 1:2; BCY9594 + 2x BCY12145; linker N-(acid-PEG3)-N-bis(PEG3-azide) (peptide 1 A[hArg]DC[Hyp]LVNPLCLHP[dD]W[hArg]C; peptide 2 Ac-C[tBuAla]PE[dK(PYA)]PYCFAEPY[Nle]C; linker I:4-I:11-I:18 via TATA (inferred); linker II:1-II:8-II:15 via TATA; linker II:N-II:5 via N‑(acid-PEG3)‑N‑bis(PEG3-azide); not fully specified (N-terminus); reading uncertain; also: chain 2 twice (1:2 complex)),–,–,–,0.2 fold,0.9 fold
"I: A[hArg]DC[Hyp]LVNPLCLEP[dD]WTC-NH2 / II: Ac-C[tBuAla]PE[dK]PYCFADPY[Nle]CA-NH2 / III: Ac-C[tBuAla]PE[dK]PYCFADPY[Nle]CA-NH2 (linker I:4-I:11-I:18, II:1-II:8-II:15, III:1-III:8-III:15 via TATA; linker I:N-II:5-III:5 via X1) [BCY13044]",–,49.5,0.21 nM,–,–
"BCY14052: EphA2:CD137 1:2; BCY13920 + 2x BCY8928; linker N-(acid-PEG3)-N-bis(PEG3-azide) (peptide 1 A[hArg]DC[Hyp]LVNPLCLFP[dD]W[hArg]C; peptide 2 Ac-C[tBuAla]PE[dK](PYA″)PYCFADPY[Nle]CA; linker I:4-I:11-I:18 via TATA; linker II:1-II:8-II:15 via TATA (inferred); not fully specified (N-terminus, bridges); also: 2x chain 2 (2x BCY8928) on linker)",–,–,–,4.16 fold,1.89 fold
"I: A[hArg]DC[Hyp]LVNPLCLHP[dNle]W[hArg]C-NH2 / II: Ac-C[tBuAla]PE[dK]PYCFADPY[Nle]CA-NH2 / III: Ac-C[tBuAla]PE[dK]PYCFADPY[Nle]CA-NH2 (linker I:4-I:11-I:18, II:1-II:8-II:15, III:1-III:8-III:15 via TATA; linker I:N-II:5-III:5 via X1) [BCY13288]",–,43.3,0.09 nM,–,–
"I: A[hArg]DC[Hyp]LVNPLCLHP[dD]WTC-NH2 / II: Ac-C[tBuAla]PE[dK]PYCFADPY[Nle]CA-NH2 / III: Ac-C[tBuAla]PE[dK]PYCFADPY[Nle]CA-NH2 (linker I:4-I:11-I:18, II:1-II:8-II:15, III:1-III:8-III:15 via TATA; linker I:N-II:5-III:5 via X1) [BCY13043]",–,52.7,0.11 nM,–,–
